Results reported in paper PMC5354456, “Selective inhibition of RNA polymerase I transcription as a potential approach to treat African trypanosomiasis” (PLoS Neglected Tropical Diseases, 2017).
“Also recorded” adds a separate entry of the source.

Legend:
T. brucei SM [1] = assay: Proliferation assay (growth curves, haemocytometer); format: cell-based, Trypanosoma brucei; conditions: growth over 48 hours
Method: (§1) For proliferation assays, T. brucei SM was treated with inhibitors, and densities were determined using a Neubauer haemocytometer. Growth curves were repeated minimally in triplicate. For wash-out assays, T. brucei SM was treated with various concentrations of inhibitors. After two hours the cells were washed, resuspended in drug free HMI-9 medium, and cell proliferation was monitored using a haemocytometer. For the Alamar Blue in vitro cytotoxicity assay, 200 μl samples of T. brucei SM cells (2 x 10^3 cells ml^-1) were plated in 96 well plates, and incubated for 72 hours with two fold serial dilutions of the inhibitors. At 72 hours, 20 μl of Resazurin (0.125 mg ml^-1) (Sigma) was added, and the parasites were incubated for a further 18 hours. Fluorescence was measured using a Tecan infinite plate reader (excitation at 530 nm, emission at 585 nm). The change in fluorescence (minus the chemical only control) was plotted as a function of the concentration of chemical compound using the sigmoidal dose-response (variable slope) algorithm using GraphPad Prism version 5.

[2] = tested on: bloodstream form Trypanosoma brucei; assay: Alamar Blue in vitro cytotoxicity assay, T. brucei SM; format: cell-based; conditions: for IC50: 72 hour Alamar Blue, mean ± SD, three biological replicates; for T. brucei more sensitive than human cells (selectivity range): compared with MCF10A and BJ3 human cell lines
Method: as §1

[3] = tested on: MCF10A human breast epithelial cell line; assay: Alamar Blue cytotoxicity assay, MCF10A cells; format: cell-based; conditions: for IC50: 72 hour Alamar Blue, mean ± SD; for T. brucei more sensitive than MCF10A: Alamar Blue IC50s compared; for selectivity index for T. brucei vs MCF10A (Alamar blue): IC50 MCF10A Alamar blue / IC50 T. brucei
Method: (§2) For the mammalian cell toxicity assays, either the spontaneously immortalised Michigan Cancer foundation (MCF10A) human breast epithelial cell line was used, or the BJ3 cell line, which is a human foreskin fibroblast cell line immortalized with the h-Tert catalytic subunit of telomerase. Cells were seeded in 96-well plates, and after 48 hours each well was treated in quintuplicate using ten different concentrations of CX-5461, quarfloxin, BMH-21 or suramin. After incubation for 48 hours, the cells were imaged and cell confluence was calculated using an IncuCyte ZOOM (Essen Biosciences). Cell confluence was normalised to a drug vehicle only control which was set to 100%. An Alamar Blue assay was also performed on the MCF10A cell line in the presence of the different Pol I transcription inhibitors. Here the Alamar Blue readout was also normalised to the vehicle only control. Experiments were performed as three biological replicates with the exception of the Incucyte data for MCF10A in the presence of BMH-21 and doxycycline which were obtained in duplicate. The dose response curves and IC50s were calculated using GraphPad Prism.

[4] = tested on: BJ3 human foreskin fibroblast cell line; assay: IncuCyte cell confluence assay, BJ3 fibroblasts; format: cell-based; conditions: for IC50: 48 hours IncuCyte, IC50 for cell death, mean ± SD; for selectivity index for T. brucei vs BJ3 human fibroblasts (Incucyte): IC50 BJ3 cell death / IC50 T. brucei
Method: as §2
In parallel, the BJ3 human foreskin fibroblast cell line that had been immortalised with hTert (the catalytic subunit of telomerase) was also tested for sensitivity to these compounds [46] (S2 Fig)(S3 Fig). The IC50 values corresponding to either growth arrest or cell death shown in S2 Fig were obtained by observing the cell images (S3 Fig) and determining the point where the specific dose curve plateaus at the higher concentrations. If the cells were morphologically sound, then the dose curve represented growth arrest of the cells. If the cells were dead, then the dose curve represented cell death. The IC50 values for cell death were used to calculate the selectivity index scores.

[5] = tested on: Expression Site Body (ESB) and nucleolus of T. brucei; assay: Immunofluorescence microscopy of ESB, VEX1 foci and nucleolus; format: cell-based, Trypanosoma brucei; conditions: for cells with an ESB / ESB positive cells: one hour, G1 cells, untreated 64 ± 17%
Method: Trypanosomes were fixed in 2% paraformaldehyde, permeabilised with 0.1% NP-40 for 5 minutes at room temperature before incubation for one hour with an antibody against the nucleolar marker L1C6 [47] or anti-myc tag antibody (clone 4A6, EMD Millipore). Slides were subsequently incubated with a goat anti-mouse secondary antibody coupled to Alexa-594 (Molecular Probes), before mounting in Vectashield containing DAPI (Vector Laboratories). Microscopy was performed using a Zeiss Imager.M1 microscope equipped with a Zeiss AxioCam MRm camera and Axio Vision Rel 4.8 software. A Z-stack of images was taken at 200 nm intervals, and the images from the individual channels were processed using Image J software. For quantitation of ESB signal using YFP, VEX1 signal using the anti-myc tag antibody or nucleolar signal using the L1C6 antibody, the exposure time and contrast was uniformly adjusted across all conditions. Quantification of ESB and nucleolar signal was carried out using compressed stacks of all appropriate channels in which the images acquired on the Z-axis were analysed. The ESB and nucleolar status was recorded for a total of approximately 100 cells in G1 (two biological replicates of approximately 50 cells) for each condition.

[6] = tested on: MCF10A human breast epithelial cell line; assay: IncuCyte cell confluence proliferation assay, MCF10A cells; format: cell-based; conditions: for IC50: 48 hour IncuCyte, mean ± SD; for selectivity index for T. brucei vs MCF10A (Incucyte): IC50 MCF10A Incucyte / IC50 T. brucei
Method: as §2

[7] = tested on: T. brucei RPA2 Pol I subunit; assay: Western blot of YFP-RPA2 Pol I subunit; format: cell-based, Trypanosoma brucei; conditions: 3 μM, one hour, T. brucei TY-YFP-RPA2
Method: (A) The T. brucei TY-YFP-RPA2 cell line was incubated with various concentrations of BMH-21 for the time indicated in hours. As a control, T. brucei was also incubated with 800 nM of suramin. Lysate from 1 x 10^7 cell equivalents was blotted and probed with anti-TY (BB2) antibody. A band corresponding to T. brucei RPA2 is shown, as well as a Ponceau S stain of the blot to serve as a loading control. Size markers in kiloDaltons (kDa) are indicated. (TIF) Click here for additional data file.

T. brucei SM [8] = assay: Wash-out assay; format: cell-based, Trypanosoma brucei; conditions: two hours incubation, then wash-out
Method: as §1

[9] = tested on: Pol I transcription (rDNA and VSG221 ES precursor transcripts); assay: RNA precursor transcript analysis by qRT-PCR; format: cell-based, Trypanosoma brucei
Method: RNA transcript analysis was performed using quantitative reverse transcription PCR (qRT-PCR). Total RNA was isolated using the RNeasy kit (Qiagen) and DNase treated with TURBO DNA-free kit (Invitrogen). Reverse transcription was performed using 100 ng RNA as a template for cDNA synthesis using random hexamer primers (Promega) and the Omniscript RT kit (Qiagen). qPCR was performed on the 7500 Fast Real-Time PCR system (Life Technologies) using Brilliant II SYBR Green QPCR Low ROX Master Mix (Agilent Technologies). DNase treated RNA without reverse transcriptase was used as a control. The amplification conditions for each primer pair were optimised, and the primer sequences are listed in S1 Table. Transcript levels were normalised against actin mRNA, and plotted as relative change relative to the zero hour time point.

T. b. rhodesiense = tested on: T. b. rhodesiense; design: method as in PMID 20149544; conditions: similar Alamar Blue assay; read-out: IC50 suramin for T. b. rhodesiense; cited from earlier work

Compound	drug concentration that resulted in suppression of proliferative growth in T. brucei (T. brucei SM [1]) [nM]	T. brucei more sensitive than human cells (selectivity range) [2]	T. brucei more sensitive than MCF10A [3] [fold]	selectivity index for T. brucei vs MCF10A (Alamar blue) [3]	selectivity index for T. brucei vs BJ3 human fibroblasts (Incucyte) [4]	nucleolar structure (L1C6 marker) ([5]; 3 μM)	cells with an ESB ([5]; 3 μM)	VEX1 signal (ESB marker) ([5]; 3 μM, three hours)	selectivity index for T. brucei vs MCF10A (Incucyte) [6]	IC50 ([2]; Trypanosoma brucei) [µM]	IC50 ([3]; Homo sapiens, MCF-10A) [µM]	reversibility of inhibition of T. brucei proliferation (T. brucei SM [8])	IC50 ([4]; Homo sapiens, Fibroblast) [µM]	IC50 ([6]; Homo sapiens, MCF-10A) [µM]	other results
CN(C)CCNC(=O)c1cccn2c(=O)c3cc4ccccc4cc3nc12 [BMH-21]	300	3-10 fold	3.4	(3.4x)	(10x)	nucleoli fragmenting into multiple foci	1 ± 1.4%	drastically reduced	(4.6x)	–	–	–	–	–	IC50 [2]: 0.134 ± 0.008 µM; IC50 [3]: 0.46 ± 0.08 µM; IC50 [4]: 1.36 ± 0.22 µM; IC50 [6]: 0.622 ± 0.34 µM; degradation of the RPA2 Pol I subunit [7]: we did not see evidence for degradation of the RPA2 Pol I subunit
Cc1cnc(CNC(=O)c2c(=O)c3ccc(N4CCCN(C)CC4)nc3n3c2sc2ccccc23)cn1 [CX-5461]	1000	25-35 fold	25	(25x)	(35x)	nucleoli fragmenting into multiple foci	4.5 ± 0.7%	drastically reduced	(28x)	0.279 ± 0.016	6.89 ± 4.83	irreversibly	9.78 ± 0.79	7.84 ± 9.8	repression of Pol I transcription ([9]; 1 μM, 15 minutes): specific knockdown of Pol I transcripts
C[C@H]1c2cccc(O)c2C(=O)C2=C(O)[C@]3(O)C(=O)C(C(N)=O)=C(O)[C@@H](N(C)C)[C@@H]3[C@@H](O)[C@@H]21 [Doxycycline, doxycycline]	–	–	–	–	–	–	–	–	–	–	50.7 ± 33.8	–	–	–	–
CN1CCC[C@H]1CCNC(=O)c1cn2c3c(c(N4CCC(c5cnccn5)C4)c(F)cc3c1=O)Oc1cc3ccccc3cc1-2 (some centres unmarked) [Quarfloxin, quarfloxin]	300	18-40 fold	29	(29x)	(18x)	nucleoli fragmenting into multiple foci	No cells contained an ESB; also recorded: none of the cells had an ESB	drastically reduced	(40x)	0.155 ± 0.009	4.44 ± 3.29	irreversibly	2.72 ± 0.17	6.24 ± 3.87	ESB positive cells ([5]; 300 nM): 30.5 ± 5%; ESB positive cells ([5]; 1 μM): 7.5 ± 0.7%; VSG221 precursor transcript reduced by ([9]; 1 μM, 15 minutes): 94.5 ± 1.9%; VSG pseudogene transcript reduced by ([9]; 1 μM, 15 minutes): 92.3 ± 1.6%; pre-rRNA Precursor 1 transcript levels reduced by (primer a) ([9]; 1 μM, 15 minutes): 98.5 ± 0.66%; rRNA Precursor 2 decreased by (primer b) ([9]; 1 μM, 15 minutes): 91.3 ± 2.6%; rRNA Precursors 2 and 3 reduced by (primer pair c) ([9]; 1 μM, 15 minutes): 83.4 ± 2.1%; rRNA Precursors 2 and 3 reduced by (primer pair d) ([9]; 1 μM, 15 minutes): 89.5 ± 2.7%; Pol II derived tubulin precursor transcript level ([9]; 1 μM, fifteen minutes): 129 ± 10.3 % normal
Cc1ccc(C(=O)Nc2ccc(S(=O)(=O)O)c3cc(S(=O)(=O)O)cc(S(=O)(=O)O)c23)cc1NC(=O)c1cccc(NC(=O)Nc2cccc(C(=O)Nc3cc(C(=O)Nc4ccc(S(=O)(=O)O)c5cc(S(=O)(=O)O)cc(S(=O)(=O)O)c45)ccc3C)c2)c1 [Suramin, suramin]	–	–	–	–	–	–	–	–	–	0.063 ± 0.005	1640 ± 317	–	890 ± 127	1260 ± 90	nucleolar structure (L1C6 marker) ([5]; 800 nM): did not lead to significant changes in structure of the nucleoli; effect on ESB positive cells ([5]; 800 nM, one to three hours): only a marginal reduction in ESB positive cells; ESB as visualised using epitope tagged VEX1 ([5]; 800 nM, three hours): no specific disintegration of the ESB was observed; IC50 (T. b. rhodesiense): 0.053 µM; effect on Pol I and Pol II derived precursor transcript levels ([9]; 800 nM, 15 minutes): did not lead to reduced levels of any of these transcripts
